The text below walks through data of paper PMC9329436, “Optimization of the 4-anilinoquin(az)oline scaffold as epidermal growth factor receptor (EGFR) inhibitors for chordoma utilizing a toxicology profiling assay platform” (Scientific Reports, 2022).

Each structure is given as a SMILES string. Where two headings read alike, the source gives them in different places.

Holding throughout (format): biochemical
Test [1] concerns the target T1, 320 wild-type protein kinases (Homo sapiens, UniProt Q02156).
T1 sequence (Q02156 1-737): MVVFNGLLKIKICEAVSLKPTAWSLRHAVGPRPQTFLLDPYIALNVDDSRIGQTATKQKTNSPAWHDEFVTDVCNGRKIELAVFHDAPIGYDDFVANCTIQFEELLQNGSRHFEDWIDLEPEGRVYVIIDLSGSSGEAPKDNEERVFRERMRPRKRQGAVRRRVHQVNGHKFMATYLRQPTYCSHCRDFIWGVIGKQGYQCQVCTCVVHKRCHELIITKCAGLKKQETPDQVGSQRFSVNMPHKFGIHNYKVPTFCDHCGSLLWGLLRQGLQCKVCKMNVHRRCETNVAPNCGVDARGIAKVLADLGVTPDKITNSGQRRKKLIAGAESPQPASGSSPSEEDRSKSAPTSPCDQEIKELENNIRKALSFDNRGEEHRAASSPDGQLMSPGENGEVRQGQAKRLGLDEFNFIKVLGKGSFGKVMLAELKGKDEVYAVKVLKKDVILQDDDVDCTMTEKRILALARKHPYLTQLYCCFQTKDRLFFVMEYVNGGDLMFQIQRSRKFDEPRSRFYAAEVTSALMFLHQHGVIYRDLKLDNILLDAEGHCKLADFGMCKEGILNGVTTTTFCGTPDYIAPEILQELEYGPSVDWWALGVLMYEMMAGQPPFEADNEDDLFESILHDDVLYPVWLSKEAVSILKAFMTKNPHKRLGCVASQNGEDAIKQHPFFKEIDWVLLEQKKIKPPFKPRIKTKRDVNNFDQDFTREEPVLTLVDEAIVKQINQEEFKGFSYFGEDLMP
The following applies: PKC-epsilon, singlicate. From the text: (§1) Table S4. Profiling of two compounds at two concentrations against 320 wild-type protein kinases; singlicate measurement; Residual activities (% of control).

Test [2] deals with 320 wild-type protein kinases (Homo sapiens, UniProt Q16288). The following applies: kinase TRK-C, singlicate.
320 wild-type protein kinases (Homo sapiens, UniProt Q16288), sequence (Q16288 32-839): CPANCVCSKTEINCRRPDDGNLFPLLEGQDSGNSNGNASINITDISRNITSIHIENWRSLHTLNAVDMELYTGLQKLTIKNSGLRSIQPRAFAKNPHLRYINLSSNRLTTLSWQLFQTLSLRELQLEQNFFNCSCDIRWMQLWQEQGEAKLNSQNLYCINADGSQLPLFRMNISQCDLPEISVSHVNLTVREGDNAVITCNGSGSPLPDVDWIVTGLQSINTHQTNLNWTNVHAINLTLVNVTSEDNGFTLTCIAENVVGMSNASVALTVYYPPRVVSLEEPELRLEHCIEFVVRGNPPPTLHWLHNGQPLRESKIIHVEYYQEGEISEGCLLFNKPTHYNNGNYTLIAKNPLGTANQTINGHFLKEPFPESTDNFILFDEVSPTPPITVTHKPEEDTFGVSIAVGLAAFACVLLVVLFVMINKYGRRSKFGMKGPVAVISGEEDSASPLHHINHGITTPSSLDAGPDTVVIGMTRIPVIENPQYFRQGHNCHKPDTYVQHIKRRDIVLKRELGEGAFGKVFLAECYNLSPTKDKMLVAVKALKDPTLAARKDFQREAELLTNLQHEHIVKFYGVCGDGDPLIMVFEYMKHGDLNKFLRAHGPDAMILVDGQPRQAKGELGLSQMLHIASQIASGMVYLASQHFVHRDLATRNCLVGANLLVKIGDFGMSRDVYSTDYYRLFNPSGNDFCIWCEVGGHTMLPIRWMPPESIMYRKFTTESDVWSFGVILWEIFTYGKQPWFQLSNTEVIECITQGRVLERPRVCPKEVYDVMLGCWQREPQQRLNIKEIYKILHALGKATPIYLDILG
Source text: as §1

The target of test [3] is 320 wild-type protein kinases (Homo sapiens, UniProt P53671). The following applies: singlicate.
320 wild-type protein kinases (Homo sapiens, UniProt P53671), sequence (P53671 whole entry): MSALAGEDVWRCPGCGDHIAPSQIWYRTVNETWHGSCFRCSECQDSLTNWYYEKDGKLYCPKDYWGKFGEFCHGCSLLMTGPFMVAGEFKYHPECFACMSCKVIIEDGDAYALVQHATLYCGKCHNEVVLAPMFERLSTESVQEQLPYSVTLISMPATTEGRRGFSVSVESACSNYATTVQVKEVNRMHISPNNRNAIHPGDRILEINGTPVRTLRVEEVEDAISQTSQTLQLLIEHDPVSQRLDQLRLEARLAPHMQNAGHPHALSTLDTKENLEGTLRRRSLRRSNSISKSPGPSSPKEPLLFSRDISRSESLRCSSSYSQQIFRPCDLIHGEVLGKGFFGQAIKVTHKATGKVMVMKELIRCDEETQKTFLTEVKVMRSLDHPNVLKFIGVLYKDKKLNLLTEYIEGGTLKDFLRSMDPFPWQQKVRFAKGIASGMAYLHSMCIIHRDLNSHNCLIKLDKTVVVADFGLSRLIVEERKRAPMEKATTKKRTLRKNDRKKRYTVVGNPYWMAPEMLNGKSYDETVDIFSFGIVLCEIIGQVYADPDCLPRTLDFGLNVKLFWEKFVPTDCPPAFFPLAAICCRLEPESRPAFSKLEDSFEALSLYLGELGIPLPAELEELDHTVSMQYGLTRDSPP
Source text: as §1

Test [4] has as its target 320 wild-type protein kinases (Homo sapiens, UniProt P36507). The following applies: singlicate.
Source text: as §1

Test [5] concerns the target T2, 320 wild-type protein kinases (Homo sapiens, UniProt Q05513).
T2 sequence (Q05513 1-592): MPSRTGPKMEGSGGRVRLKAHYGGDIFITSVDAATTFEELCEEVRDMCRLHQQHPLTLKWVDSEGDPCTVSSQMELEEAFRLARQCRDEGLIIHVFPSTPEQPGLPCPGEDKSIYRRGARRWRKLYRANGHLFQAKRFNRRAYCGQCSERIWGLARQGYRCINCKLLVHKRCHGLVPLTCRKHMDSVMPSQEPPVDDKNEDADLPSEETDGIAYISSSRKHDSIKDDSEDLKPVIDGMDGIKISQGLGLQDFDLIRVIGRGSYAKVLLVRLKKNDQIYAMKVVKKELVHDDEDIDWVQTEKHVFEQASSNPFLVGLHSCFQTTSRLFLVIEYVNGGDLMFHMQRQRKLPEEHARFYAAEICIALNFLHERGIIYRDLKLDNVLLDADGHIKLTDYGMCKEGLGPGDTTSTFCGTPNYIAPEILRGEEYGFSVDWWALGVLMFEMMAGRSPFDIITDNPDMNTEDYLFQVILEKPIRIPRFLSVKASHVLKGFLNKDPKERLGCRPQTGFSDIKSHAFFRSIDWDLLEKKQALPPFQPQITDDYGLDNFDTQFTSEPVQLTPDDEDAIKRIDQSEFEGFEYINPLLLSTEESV
The following applies: PKC-zeta, singlicate.
Source text: as §1

In test [6] the target is T3, 320 wild-type protein kinases (Homo sapiens, UniProt P21709).
T3 sequence (P21709 26-976): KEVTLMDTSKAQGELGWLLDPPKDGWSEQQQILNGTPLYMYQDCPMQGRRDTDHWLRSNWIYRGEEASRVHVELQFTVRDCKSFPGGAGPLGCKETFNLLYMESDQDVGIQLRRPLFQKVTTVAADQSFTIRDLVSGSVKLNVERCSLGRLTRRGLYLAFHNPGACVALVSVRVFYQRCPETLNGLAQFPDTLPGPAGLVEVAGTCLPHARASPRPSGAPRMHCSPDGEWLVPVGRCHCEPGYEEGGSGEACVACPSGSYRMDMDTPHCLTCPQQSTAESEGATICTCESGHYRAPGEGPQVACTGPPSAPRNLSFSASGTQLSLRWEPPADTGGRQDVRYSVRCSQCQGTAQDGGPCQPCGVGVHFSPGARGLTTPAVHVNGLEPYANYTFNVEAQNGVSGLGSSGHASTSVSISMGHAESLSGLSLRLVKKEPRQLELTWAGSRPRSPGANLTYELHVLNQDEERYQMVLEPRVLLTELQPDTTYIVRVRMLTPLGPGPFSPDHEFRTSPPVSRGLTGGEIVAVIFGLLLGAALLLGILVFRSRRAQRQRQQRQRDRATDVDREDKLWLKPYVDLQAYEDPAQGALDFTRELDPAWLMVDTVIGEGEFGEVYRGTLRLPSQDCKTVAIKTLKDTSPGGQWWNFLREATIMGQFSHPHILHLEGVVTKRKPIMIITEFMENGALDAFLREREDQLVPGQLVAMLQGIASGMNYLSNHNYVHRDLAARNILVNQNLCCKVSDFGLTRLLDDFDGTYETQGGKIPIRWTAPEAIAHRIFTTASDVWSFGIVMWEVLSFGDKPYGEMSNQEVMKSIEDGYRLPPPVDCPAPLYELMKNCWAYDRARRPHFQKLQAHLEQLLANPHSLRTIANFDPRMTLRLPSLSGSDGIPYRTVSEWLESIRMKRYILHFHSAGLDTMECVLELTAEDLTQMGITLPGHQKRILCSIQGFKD
The following applies: singlicate.
Source text: as §1

Test [7] concerns the target 320 wild-type protein kinases (Homo sapiens, UniProt P22607). The following applies: singlicate.
Source text: as §1

Test [8] deals with 320 wild-type protein kinases (Homo sapiens, UniProt Q16584). The following applies: singlicate.
320 wild-type protein kinases (Homo sapiens, UniProt Q16584), sequence (Q16584 whole entry): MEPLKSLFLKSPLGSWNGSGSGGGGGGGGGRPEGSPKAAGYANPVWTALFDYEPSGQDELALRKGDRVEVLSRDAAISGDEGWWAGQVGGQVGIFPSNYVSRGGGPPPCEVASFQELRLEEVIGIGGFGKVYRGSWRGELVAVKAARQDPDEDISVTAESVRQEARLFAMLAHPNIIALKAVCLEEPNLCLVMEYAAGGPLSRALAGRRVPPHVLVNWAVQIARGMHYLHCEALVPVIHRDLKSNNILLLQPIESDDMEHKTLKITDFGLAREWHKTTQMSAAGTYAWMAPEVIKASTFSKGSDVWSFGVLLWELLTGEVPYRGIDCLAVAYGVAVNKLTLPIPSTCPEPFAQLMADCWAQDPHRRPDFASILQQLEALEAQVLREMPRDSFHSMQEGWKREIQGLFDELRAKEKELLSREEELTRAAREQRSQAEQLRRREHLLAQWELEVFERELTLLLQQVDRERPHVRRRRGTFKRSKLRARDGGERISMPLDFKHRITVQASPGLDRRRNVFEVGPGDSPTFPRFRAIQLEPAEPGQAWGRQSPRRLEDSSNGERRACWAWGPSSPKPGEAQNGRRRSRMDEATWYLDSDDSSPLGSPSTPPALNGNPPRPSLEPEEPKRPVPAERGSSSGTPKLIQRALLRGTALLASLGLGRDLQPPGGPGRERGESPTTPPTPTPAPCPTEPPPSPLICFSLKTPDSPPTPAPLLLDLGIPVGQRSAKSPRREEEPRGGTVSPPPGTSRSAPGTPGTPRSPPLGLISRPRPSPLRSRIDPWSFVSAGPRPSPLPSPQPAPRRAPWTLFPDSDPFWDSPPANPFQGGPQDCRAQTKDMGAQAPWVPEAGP
Source text: as §1

320 wild-type protein kinases (Homo sapiens, UniProt P22607), sequence (P22607 23-806): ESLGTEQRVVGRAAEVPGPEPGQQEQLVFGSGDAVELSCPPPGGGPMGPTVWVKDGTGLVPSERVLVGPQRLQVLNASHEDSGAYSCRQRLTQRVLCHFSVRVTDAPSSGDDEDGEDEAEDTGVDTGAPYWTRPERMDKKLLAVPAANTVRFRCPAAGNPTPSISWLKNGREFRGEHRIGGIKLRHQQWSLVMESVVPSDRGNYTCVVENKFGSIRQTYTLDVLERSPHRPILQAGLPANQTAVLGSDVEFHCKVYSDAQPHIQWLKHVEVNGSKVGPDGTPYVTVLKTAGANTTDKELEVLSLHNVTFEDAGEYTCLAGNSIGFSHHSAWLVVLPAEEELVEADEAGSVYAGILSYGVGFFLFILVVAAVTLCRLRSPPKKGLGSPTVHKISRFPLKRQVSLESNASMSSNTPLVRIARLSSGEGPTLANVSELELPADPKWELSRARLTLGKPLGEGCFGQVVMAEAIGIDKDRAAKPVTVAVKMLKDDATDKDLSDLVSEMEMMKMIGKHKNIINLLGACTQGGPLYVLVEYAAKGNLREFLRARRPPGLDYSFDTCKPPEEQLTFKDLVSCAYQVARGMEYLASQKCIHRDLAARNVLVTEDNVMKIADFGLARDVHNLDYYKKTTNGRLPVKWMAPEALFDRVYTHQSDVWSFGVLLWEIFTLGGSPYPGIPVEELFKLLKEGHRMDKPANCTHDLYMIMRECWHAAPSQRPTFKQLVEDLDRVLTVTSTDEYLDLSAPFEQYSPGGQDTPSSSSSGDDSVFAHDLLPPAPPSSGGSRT
320 wild-type protein kinases (Homo sapiens, UniProt P36507), sequence (P36507 whole entry): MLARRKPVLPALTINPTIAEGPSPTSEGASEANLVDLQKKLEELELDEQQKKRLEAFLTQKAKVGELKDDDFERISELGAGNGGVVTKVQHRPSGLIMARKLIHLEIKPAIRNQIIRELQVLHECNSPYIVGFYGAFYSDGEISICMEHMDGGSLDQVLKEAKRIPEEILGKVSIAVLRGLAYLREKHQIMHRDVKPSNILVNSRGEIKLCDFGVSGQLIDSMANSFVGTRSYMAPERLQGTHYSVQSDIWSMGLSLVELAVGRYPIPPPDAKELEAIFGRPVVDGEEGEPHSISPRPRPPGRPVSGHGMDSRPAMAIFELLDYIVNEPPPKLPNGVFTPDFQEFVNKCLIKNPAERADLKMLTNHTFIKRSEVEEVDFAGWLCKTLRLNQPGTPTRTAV

On to `C#Cc1cc(Nc2ncnc3cc(OC)c(OC)cc23)ccc1Cl` [Compound 45], for which the Residual activity in test [1] (1.0E-06 M) is reported as 88 % of control; in test [1] (1.0E-07 M), 89 % of control; in test [3] (LIMK2, 1.0E-06 M), 89 % of control; in test [3] (LIMK2, 1.0E-07 M), 94 % of control; in test [4] (MEK2, 1.0E-06 M), 105 % of control; in test [4] (MEK2, 1.0E-07 M), 102 % of control. The Residual activity is on record as 85 % of control in test [5] (1.0E-06 M); 73 % of control in test [5] (1.0E-07 M); 80 % of control in test [6] (EPHA1, 1.0E-06 M); 91 % of control in test [6] (EPHA1, 1.0E-07 M); 70 % of control in test [7] (FGF-R3, 1.0E-06 M); 79 % of control in test [7] (FGF-R3, 1.0E-07 M). The Residual activity in test [8] (MAP3K11, 1.0E-06 M) was 59 % of control; in test [8] (MAP3K11, 1.0E-07 M), 79 % of control. For the same compound, the entries for the “Residual activity, TRK-C” value in test [2] (assay conc. 1.0E-06 M) and in test [2] (assay conc. 1.0E-07 M) were 113 % of control and 136 % of control, respectively.

For `C#Cc1cc(Nc2ncnc3cc(I)ccc23)ccc1Cl` [Compound 41], the Residual activity is on record as 89 % of control in test [1] (1.0E-06 M); 82 % of control in test [1] (1.0E-07 M); 100 % of control in test [3] (LIMK2, 1.0E-06 M); 92 % of control in test [3] (LIMK2, 1.0E-07 M); 80 % of control in test [4] (MEK2, 1.0E-06 M); 101 % of control in test [4] (MEK2, 1.0E-07 M). The Residual activity in test [5] (1.0E-06 M) is on record as 76 % of control; in test [5] (1.0E-07 M) it was 87 % of control; in test [6] (EPHA1, 1.0E-06 M) it was 78 % of control; in test [6] (EPHA1, 1.0E-07 M), 106 % of control; in test [7] (FGF-R3, 1.0E-06 M), 93 % of control; in test [7] (FGF-R3, 1.0E-07 M), 99 % of control. For the same compound, the Residual activity is 73 % of control in test [8] (MAP3K11, 1.0E-06 M) and 75 % of control in test [8] (MAP3K11, 1.0E-07 M). Besides, the results for the “Residual activity, TRK-C” value in test [2] (assay conc. 1.0E-06 M) and in test [2] (assay conc. 1.0E-07 M) were 105 % of control and 115 % of control, respectively.
